In general, residual activity refers to the signal under treatment as a percentage of the control signal.

Test [1] deals with Autotaxin (Homo sapiens) (UniProt Q13822). The test is described as follows: Inhibition of human recombinant ATX at 100 uM after 16 hrs; values are per cent of control.
The target is the same in test [2]. The test is described as follows: Inhibition of human recombinant ATX at 10 uM after 16 hrs; values are per cent of control.
Test [3] has the same target. The test is described as follows: Inhibition of human recombinant ATX at 1 uM after 16 hrs; values are per cent of control.

For `CCCCCCCCCCCCCCCC(=O)N[C@@H](Cc1ccc(OCC2CCCCC2)cc1)C(O)CP(=O)(O)O` (single isomer, unassigned; diastereomer b), the residual activity at Autotaxin (Homo sapiens) [1], on Autotaxin (Homo sapiens) [2] and on Autotaxin (Homo sapiens) [3] was 80% in each case.
With `CCCCCCCCCCCCCCCC(=O)N[C@@H](Cc1ccc(OCc2cc(OCC(F)(F)F)ccn2)cc1)C(O)CP(=O)(O)O` (single isomer, unassigned; diastereomer b), the residual activity came out at 56% at Autotaxin (Homo sapiens) [1], 83% on Autotaxin (Homo sapiens) [2] and 103% on Autotaxin (Homo sapiens) [3].
With `CCCCCCCCCCCCCCCC(=O)N[C@@H](Cc1ccc(OCc2ccccc2)cc1)C(O)CP(=O)(O)O` (single isomer, unassigned; diastereomer b), the residual activity on Autotaxin (Homo sapiens) [1] amounted to 78%; at Autotaxin (Homo sapiens) [2], 83%; at Autotaxin (Homo sapiens) [3] it was 76%.
For `CCCCCCCCCCCCCCCC(=O)N[C@H](Cc1ccc(OCc2ccccc2)cc1)C(O)CP(=O)(O)O` (single isomer, unassigned; diastereomer b) the same measures were 83%, 81% and 80%.
As to `CCCCCCCCCCCCCCCC(=O)N[C@H](Cc1ccc(OCc2ccccn2)cc1)C(O)CP(=O)(O)O` (single isomer, unassigned; diastereomer b), the residual activity stood at 69% at Autotaxin (Homo sapiens) [1], 78% on Autotaxin (Homo sapiens) [2] and 92% at Autotaxin (Homo sapiens) [3].
On the same counts, the results for `CCCCCCCCCCCCCCCC(=O)N[C@H](Cc1ccc(OCc2ncc(C)c(OC)c2C)cc1)C(O)CP(=O)(O)O` (single isomer, unassigned; diastereomer b) are 47%, 64% and 69%.
For `CCCCCCCCCCCCCCCC(=O)N[C@H](Cc1ccc(OCCC)cc1)C(O)CP(=O)(O)O` (stereo in doubt) the same measures were 72%, 79% and 80%.
For the compound `CCCCCCCCCCCCCCCC(=O)N[C@@H](Cc1ccc(OCc2cc(OCC(F)(F)F)ccn2)cc1)C(O)CP(=O)(O)O` (stereo in doubt; f3), the residual activity at Autotaxin (Homo sapiens) [1] came to 32%; on Autotaxin (Homo sapiens) [2], 80%; on Autotaxin (Homo sapiens) [3], 92%.
`CCCCCCCCCCCCCCCC(=O)N[C@H](Cc1ccc(OCc2ccccn2)cc1)C(O)CP(=O)(O)O` (stereo in doubt; f9): the residual activity on Autotaxin (Homo sapiens) [1] worked out at 60%; on Autotaxin (Homo sapiens) [2], 76%; on Autotaxin (Homo sapiens) [3], 103%.
Consider `CCCCCCCCCCCCCCCC(=O)N[C@@H](Cc1ccc(OCc2ncc(C)c(OC)c2C)cc1)C(O)CP(=O)(O)O` (stereo in doubt; f17), for which the values for the residual activity at Autotaxin (Homo sapiens) [1], at Autotaxin (Homo sapiens) [2] and on Autotaxin (Homo sapiens) [3] were 6%, 13% and 27%, respectively.
Turning to `CCCCCCCCCCCCCCCC(=O)N[C@@H](Cc1ccc(OCc2ncc(C)c(OC)c2C)cc1)C(O)CP(=O)(O)O` (stereo in doubt; f18), the residual activity was determined as 8% on Autotaxin (Homo sapiens) [1], 21% on Autotaxin (Homo sapiens) [2] and 63% on Autotaxin (Homo sapiens) [3].
`CCCCCCCCCCCCCCCC(=O)N[C@H](Cc1ccc(OC)cc1)C(O)CP(=O)(O)O` (stereo in doubt; f20): the residual activity at Autotaxin (Homo sapiens) [1] came out at 82%; at Autotaxin (Homo sapiens) [2], 84%; at Autotaxin (Homo sapiens) [3], 95%.
Take `CCCCCCCCCCCCCCCC(=O)N[C@@H](Cc1ccc(OC)cc1)C(O)CP(=O)(O)O` (stereo in doubt; f22): the residual activity at Autotaxin (Homo sapiens) [1] was 69%; on Autotaxin (Homo sapiens) [2], 80%; on Autotaxin (Homo sapiens) [3], 84%.
For `CCCCCCCCCCCCCCCC(=O)N[C@@H](Cc1ccc(OCCC(C)C)cc1)C(O)CP(=O)(O)O` (stereo in doubt; f33) the same measures were 82%, 104% and 104%.
For the compound `CCCCCCCCCCCCCCCC(=O)N[C@@H](Cc1ccc(OCCC(C)C)cc1)C(O)CP(=O)(O)O` (stereo in doubt; f34), the residual activity turned out to be 91% on Autotaxin (Homo sapiens) [1], 101% on Autotaxin (Homo sapiens) [2] and 106% at Autotaxin (Homo sapiens) [3].
On the same counts, the results for `CCCCCCCCCCCCCCCCCC(=O)N[C@@H](Cc1ccc(OCc2ncc(C)c(OC)c2C)cc1)C(O)CP(=O)(O)O` (stereo in doubt; f39) are 81%, 91% and 101%.
On the same counts, the results for `CCCCCCCC/C=C/CCCCCCCC(=O)N[C@@H](Cc1ccc(OCc2ncc(C)c(OC)c2C)cc1)C(O)CP(=O)(O)O` (stereo in doubt; f42) are 58%, 68% and 77%.

For the origin of these results see ChEMBL document CHEMBL1144604, “Synthesis and biological evaluation of phosphonate derivatives as autotaxin (ATX) inhibitors” (Bioorg Med Chem Lett, 2007).
